Test results published in patent publication US10806711B2 (priority 2011, dated 2020).
Entries after “also recorded” stand apart in the source; their conditions may differ.

What was measured:
TRPV2^+/− mice = assay: Contractility by echo after IP probenecid in TRPV2+/− mice; format: in vivo, mouse; conditions: 100 mg/kg
Method: WT, TRPV2^+/−, and TRPV2^−/− mice were monitored by echo for 30 minutes after injection as described below. Echocardiography—All echocardiographic studies were performed with a Vevo 2100 Ultrasound system (Visualsonics, Toronto Calif.) with an MS400 probe (30 MHz centerline frequency) and were post-processed at a separate workstation with Vevostrain software (Vevo 2100, v1.1.1 B1455, Visualsonic, Toronto, Canada). Images were obtained from PSLAX and short axis (SAX) views at depths between 2 and 10 mm in both M-mode and B-mode. All studies on mice exposed to I/R injury included M-mode, B-mode in PSLAX and strain imaging in SAX. While for the contractility studies, only M-mode measurements were obtained from the PSLAX. Strain imaging was performed from the B-mode images and regional radial strain and circumferential displacement were measured by regional wall and summed average from the SAX images. From the M-mode images, left ventricular cavity size and wall thickness was measured and the ejection fraction (EF) and fractional shortening (FS) calculations were obtained using the Vevo software. […] In addition, the average change from baseline for each time point between 5 and 30 minutes was determined for each mouse, with measurements being taken every 5 minutes. […]

[1] = test system: phospholamban (PLN) and the ryanodine receptor (RyR), NCX, SERCA2a; assay: Western blot of calcium handling proteins in Langendorff hearts; design: species or system mouse
Excerpt: Western Blot Analysis—WT hearts used for protein expression were isolated from control mice (C57, 12-16 weeks old) from the Langendorff experiments. Total protein for calcium handling proteins was isolated by homogenizing whole hearts in an ice-cold buffer containing (in mM): 80 Imidazole, 300 sucrose, 1 DTT, 10 sodium metabisulfite, the protease inhibitor cocktail P8340 (Sigma, St. Louis, Mo.) and the phosphatase inhibitor cocktail set II (EMD, Merck, Darmstadt, Germany). Protein concentrations were determined using the BCA Protein Assay kit (Pierce, Thermo Scientific, Rockford, Ill.). Aliquots of protein were separated on SDS-PAGE gels (Novex gels, Invitrogen, Eugene, Oreg.) and then transferred to nitrocellulose membranes (Bio-Rad, Hercules, Calif.) and blocked with 5% BSA. The membranes were analyzed with primary antibodies. When appropriate, the membranes were cut in half to allow two different primary antibodies to be used. The top half would be used for one of the Ca^2+ handling proteins and the bottom half (less than 60 kD) would be used for the normalization protein, actin. In circumstances where it wasn't appropriate to cut the membrane, as the two proteins were too close in size, the membranes were stripped after the first protein. Membranes were also stripped between primary antibodies for phosphorylated proteins and corresponding total protein.

[2] = test system: isolated ventricular myocytes; assay: Whole-cell patch clamp Ca2+ current recording; format: cell-based, mouse; conditions: myocytes held at −70 mV, 0.1 μM
Method: Electrophysiological recordings—Isolated myocytes were perfused with a Na^+- and K^+-free solution containing (mM): tetraethylammonium chloride (TEA-Cl) 137, CsCl 5.4, CaCl2 2, MgCl2 1, HEPES 5, glucose 10 and 4-aminopyridine 3 (pH=7.4). Whole-cell patch clamp recordings were performed with an Axopatch-1B amplifier. For Ca^2+ current recordings, glass pipettes were filled with solution containing (mM): aspartic acid 115, CsOH 115, CsCl 20, EGTA 11, HEPES 10, MgCl2 2.5, Na-GTP 0.1, Mg-ATP 2 (pH adjusted to 7.2 with CsOH). Probenecid was dissolved in a Na^+- and K^+-free solution which was used to perfuse the myocytes. Data were collected using pCLAMP9 software through an Axon Digidata 1322A data acquisition system. All experiments were performed at room temperature (24° C.).

HL-1 cells = format: cell-based
Method: Cell Viability Assays—Cell viability was assessed using the ApoTox-Glo Triplex Assay (Promega, Madison, Wis.) per manufacturer's instructions. Briefly, HL-1 cells were seeded in 96 well plates at a density of 1×10^4 cells/well and allowed to grow overnight in Claycomb media supplemented with 10% FBS, 100 U/ml penicillin/streptomycin, and 2 mM L-glutamine. […] GF-AFC viability was then added to ApoTox-Glo Assay Buffer at a ratio of 10 μl GF-AFC to 2.0 ml Assay Buffer and 20 μl of this mixture was added to each well and cells were incubated at 37° C. for 30 minutes. Fluorescence was measured at 400 nm (ex)/505 nm (em) and the data was normalized to untreated control cells.

mice after I/R injury = assay: Ischemia/Reperfusion followed by oral probenecid (echocardiography); format: in vivo, mouse
Method: Ischemia/Reperfusion methods—Mice were anesthetized with sodium pentobarbital and the heart exposed through a left thoracotomy at the level of the fourth intercostal space. The mice were intubated and placed on a mini-ventilator (Harvard apparatus, Holliston, Mass.). A loop occluder was placed around the left anterior descending artery (LAD), and tightened, occluding it for either 30 minutes or 45 minutes. After surgery, the thorocotomy was sutured in layers, and the animal was allowed to recover. Echocardiography methods—All echocardiographic studies were performed as previously described for Example 1.

healthy pig model = assay: Cardiac function by echocardiography in healthy porcine model; format: in vivo
[3] = test system: subjects with uncomplicated congestive heart failure; conditions: 2 g/day or 4 g/day orally over several days; cited from earlier work

## CCCN(CCC)S(=O)(=O)c1ccc(C(=O)O)cc1 [probenecid]
TRPV2^+/− mice
  decrease in contractility response versus WT: approximately 50%
[1]; hearts after 10^−6 M perfusion, data not shown
  expression levels of NCX and SERCA2a: no changes were found in the expression levels
[1]; hearts after 5 minute perfusion of 10^−6 M
  amount of phosphorylated or total phospholamban or ryanodine receptor: no significant changes
[2]
  inward Ca2+ current: No measurable inward Ca^2+ current was detected
HL-1 cells; increasing doses, 4, 8 or 24 hours following treatment
  cytotoxicity / cell death: does not result in any detectable cytotoxicity; also recorded: no significant cell death
HL-1 cells; probenecid at supraphysiological, isoproterenol at clinically relevant concentrations
  cell death in HL-1 cells (Example 3 summary): no cell death
Mice after I/R injury; oral in water after 45 min I/R, water 0.018±0.018, p<0.05
  radial displacement: 0.071±0.013
Mice after I/R injury; oral in water after 45 min I/R, water 22.55±4.47, p=0.076
  LV cavity size (LV Vol;d) increase: 7.59±6.08
Mice after I/R injury; oral in water after I/R (FIG. 11D legend)
  change in EF: slight (but not statistically significant) increase in the change in EF
Healthy pig model; bolus of 5 mg/kg IV, 5 mg/kg
  cardiac function (EF) by echocardiography: rapid increase in EF
Healthy pig model; continuous drip 5 mg/kg/hr (first 60 minutes) and 10 mg/kg/hr (second thirty minutes)
  cardiac function by echocardiography: improves function; also recorded: improvement in cardiac function
[3]
  diuretic effect: strong diuretic effect
